Data published in ChEMBL document CHEMBL4507276 (2021).

Legend:
[1] = target: Alpha-2B adrenergic receptor (Homo sapiens) (UniProt P18089); settings: Compound concentration 10.0 uM
[2] = target: T1, Inhibitor of nuclear factor kappa-B kinase subunit epsilon (Homo sapiens) (UniProt Q14164); assay: IKBKE Invitrogen selectivity data (BI); settings: Compound concentration 3.0 uM
T1 sequence (whole entry): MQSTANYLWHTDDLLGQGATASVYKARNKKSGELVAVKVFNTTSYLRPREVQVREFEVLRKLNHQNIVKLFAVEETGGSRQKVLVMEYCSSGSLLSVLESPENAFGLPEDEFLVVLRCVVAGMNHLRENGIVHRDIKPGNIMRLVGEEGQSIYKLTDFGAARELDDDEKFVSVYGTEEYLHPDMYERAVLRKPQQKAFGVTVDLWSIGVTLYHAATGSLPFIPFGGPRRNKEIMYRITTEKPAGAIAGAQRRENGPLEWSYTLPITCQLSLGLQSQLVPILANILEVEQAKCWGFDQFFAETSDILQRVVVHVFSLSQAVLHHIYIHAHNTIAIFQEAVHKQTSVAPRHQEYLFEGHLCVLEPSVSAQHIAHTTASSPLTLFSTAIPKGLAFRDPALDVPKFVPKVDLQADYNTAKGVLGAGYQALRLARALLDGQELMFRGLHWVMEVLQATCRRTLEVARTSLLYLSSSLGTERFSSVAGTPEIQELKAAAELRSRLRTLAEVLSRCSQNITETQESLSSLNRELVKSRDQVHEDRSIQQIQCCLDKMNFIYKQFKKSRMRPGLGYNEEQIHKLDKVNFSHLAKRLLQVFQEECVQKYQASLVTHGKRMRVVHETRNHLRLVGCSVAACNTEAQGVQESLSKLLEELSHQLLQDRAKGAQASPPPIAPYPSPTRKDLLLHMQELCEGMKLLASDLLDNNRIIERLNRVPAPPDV

[3] = target: L-type Ca2+ channel (verapamil site), Cav1.2 alpha-1C (Rattus norvegicus, UniProt P22002); assay: CA+/VERSI/R Cerep selectivity data (BI); set-up: mode of action inhibitor; settings: rat brain, probe [3H](-)D888, compound concentration 20 uM, read-out: % Ctrl
[4] = target: Adenosine receptor A1 (Homo sapiens) (UniProt P30542); assay: A1H_AGON Cerep selectivity data (BI); settings: filed as agonist, Compound concentration 20.0 uM
Chain of Adenosine receptor A1 (Homo sapiens) (P30542 whole entry): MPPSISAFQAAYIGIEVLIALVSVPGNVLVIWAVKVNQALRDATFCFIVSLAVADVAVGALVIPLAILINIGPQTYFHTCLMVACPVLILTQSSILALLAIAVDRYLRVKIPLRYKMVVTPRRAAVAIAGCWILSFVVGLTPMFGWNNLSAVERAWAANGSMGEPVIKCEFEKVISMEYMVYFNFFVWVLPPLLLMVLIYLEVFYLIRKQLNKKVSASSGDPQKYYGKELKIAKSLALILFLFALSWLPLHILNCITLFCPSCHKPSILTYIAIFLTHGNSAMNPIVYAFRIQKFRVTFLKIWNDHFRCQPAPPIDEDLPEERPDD

[5] = target: Oxysterols receptor LXR-beta (Homo sapiens) (UniProt P55055); assay: LXR_BETAH_AGON Cerep selectivity data (BI); settings: filed as agonist, Compound concentration 20.0 uM
Chain of Oxysterols receptor LXR-beta (Homo sapiens) (P55055 whole entry, canonical isoform): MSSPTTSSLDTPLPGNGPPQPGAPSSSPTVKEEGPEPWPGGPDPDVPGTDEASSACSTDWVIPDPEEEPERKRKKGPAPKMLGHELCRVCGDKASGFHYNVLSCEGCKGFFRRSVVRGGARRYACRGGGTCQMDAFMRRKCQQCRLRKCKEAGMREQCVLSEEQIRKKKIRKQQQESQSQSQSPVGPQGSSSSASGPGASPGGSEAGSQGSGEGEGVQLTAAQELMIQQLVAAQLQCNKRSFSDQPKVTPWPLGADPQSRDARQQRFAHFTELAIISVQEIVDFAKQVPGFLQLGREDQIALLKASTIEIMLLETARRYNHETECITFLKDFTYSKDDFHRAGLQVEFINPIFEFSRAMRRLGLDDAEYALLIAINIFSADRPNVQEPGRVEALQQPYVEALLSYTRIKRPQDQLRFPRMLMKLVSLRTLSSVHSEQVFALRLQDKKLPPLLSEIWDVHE

[6] = target: Casein kinase I isoform alpha (Homo sapiens) (UniProt P48729); assay: CSNK1A1 Invitrogen selectivity data (BI); settings: Compound concentration 3.0 uM
[7] = target: T2, Serine/threonine-protein kinase Nek2 (Homo sapiens) (UniProt P51955); assay: NEK2 Invitrogen selectivity data (BI); settings: Compound concentration 3.0 uM
T2 sequence (whole entry): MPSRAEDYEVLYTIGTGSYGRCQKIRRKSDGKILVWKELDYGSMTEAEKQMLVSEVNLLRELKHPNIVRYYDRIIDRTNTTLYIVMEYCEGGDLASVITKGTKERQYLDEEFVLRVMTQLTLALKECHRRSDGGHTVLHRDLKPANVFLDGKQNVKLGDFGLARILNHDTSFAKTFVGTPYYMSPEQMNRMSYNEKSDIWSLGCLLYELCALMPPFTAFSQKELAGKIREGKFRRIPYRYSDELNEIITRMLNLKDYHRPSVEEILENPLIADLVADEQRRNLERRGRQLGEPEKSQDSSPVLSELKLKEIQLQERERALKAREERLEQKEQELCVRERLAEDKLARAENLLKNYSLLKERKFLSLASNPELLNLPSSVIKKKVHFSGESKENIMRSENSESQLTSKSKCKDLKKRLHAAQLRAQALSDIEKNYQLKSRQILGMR

[8] = target: RAC-gamma serine/threonine-protein kinase (Homo sapiens) (UniProt Q9Y243); assay: AKT3 Invitrogen selectivity data (BI); settings: Compound concentration 3.0 uM
Chain of RAC-gamma serine/threonine-protein kinase (Homo sapiens) (Q9Y243 whole entry): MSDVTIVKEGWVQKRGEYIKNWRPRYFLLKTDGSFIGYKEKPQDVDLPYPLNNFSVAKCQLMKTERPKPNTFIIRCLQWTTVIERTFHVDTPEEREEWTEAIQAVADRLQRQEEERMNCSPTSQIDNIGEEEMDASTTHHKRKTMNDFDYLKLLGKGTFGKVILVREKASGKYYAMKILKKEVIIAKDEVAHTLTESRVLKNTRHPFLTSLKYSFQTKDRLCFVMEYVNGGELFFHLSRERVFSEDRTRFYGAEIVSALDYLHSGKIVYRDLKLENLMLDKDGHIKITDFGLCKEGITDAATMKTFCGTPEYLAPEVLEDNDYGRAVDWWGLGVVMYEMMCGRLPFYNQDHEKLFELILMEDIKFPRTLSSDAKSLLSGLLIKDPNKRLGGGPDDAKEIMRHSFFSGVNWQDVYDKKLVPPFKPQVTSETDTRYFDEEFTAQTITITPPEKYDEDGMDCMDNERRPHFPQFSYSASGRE

[9] = target: Bone morphogenetic protein receptor type-1A (Homo sapiens) (UniProt P36894); assay: BMPR1A(ALK3) Invitrogen selectivity data (BI); settings: Compound concentration 3.0 uM
[10] = target: Alpha-1B adrenergic receptor (Rattus norvegicus) (UniProt P15823); assay: ALPHA1B/R Eurofins-Panlabs selectivity data (BI); settings: Compound concentration 10.0 uM
[11] = target: Interleukin-1 receptor-associated kinase 1 (Homo sapiens) (UniProt P51617); assay: IRAK1 Invitrogen selectivity data (BI); settings: Compound concentration 3.0 uM
Chain of Interleukin-1 receptor-associated kinase 1 (Homo sapiens) (P51617 whole entry, looked up): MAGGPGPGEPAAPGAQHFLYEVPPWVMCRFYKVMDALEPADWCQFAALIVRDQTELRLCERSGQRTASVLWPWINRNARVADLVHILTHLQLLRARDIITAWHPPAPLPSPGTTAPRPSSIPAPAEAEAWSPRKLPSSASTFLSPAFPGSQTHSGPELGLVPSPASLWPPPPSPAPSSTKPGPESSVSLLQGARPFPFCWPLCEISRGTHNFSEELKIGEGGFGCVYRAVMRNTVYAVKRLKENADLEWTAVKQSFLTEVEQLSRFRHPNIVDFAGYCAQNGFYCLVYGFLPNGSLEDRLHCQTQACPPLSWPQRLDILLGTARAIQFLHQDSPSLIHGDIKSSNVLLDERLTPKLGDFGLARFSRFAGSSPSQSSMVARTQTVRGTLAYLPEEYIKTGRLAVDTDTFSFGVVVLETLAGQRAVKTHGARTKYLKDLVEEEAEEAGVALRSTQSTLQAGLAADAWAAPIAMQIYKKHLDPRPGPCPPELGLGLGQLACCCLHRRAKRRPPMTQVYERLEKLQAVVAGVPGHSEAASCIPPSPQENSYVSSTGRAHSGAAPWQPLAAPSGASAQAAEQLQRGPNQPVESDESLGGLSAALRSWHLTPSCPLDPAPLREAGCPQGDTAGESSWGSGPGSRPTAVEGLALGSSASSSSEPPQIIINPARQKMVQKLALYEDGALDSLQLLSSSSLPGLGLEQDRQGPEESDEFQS

[12] = target: Sigma non-opioid intracellular receptor 1 (Homo sapiens) (UniProt Q99720); assay: SIGMA/NS Cerep selectivity data (BI); settings: filed as agonist, Compound concentration 20.0 uM
Chain of Sigma non-opioid intracellular receptor 1 (Homo sapiens) (Q99720 whole entry): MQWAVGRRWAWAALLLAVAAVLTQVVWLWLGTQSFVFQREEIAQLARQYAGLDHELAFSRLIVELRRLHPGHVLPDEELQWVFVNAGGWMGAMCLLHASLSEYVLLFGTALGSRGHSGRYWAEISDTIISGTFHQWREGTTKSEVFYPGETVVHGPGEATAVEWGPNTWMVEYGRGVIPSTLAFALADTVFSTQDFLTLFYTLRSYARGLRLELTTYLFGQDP

[13] = target: Mitogen-activated protein kinase 8 (Homo sapiens) (UniProt P45983); assay: MAPK8 Invitrogen selectivity data (BI); settings: Compound concentration 3.0 uM
Chain of Mitogen-activated protein kinase 8 (Homo sapiens) (P45983 whole entry): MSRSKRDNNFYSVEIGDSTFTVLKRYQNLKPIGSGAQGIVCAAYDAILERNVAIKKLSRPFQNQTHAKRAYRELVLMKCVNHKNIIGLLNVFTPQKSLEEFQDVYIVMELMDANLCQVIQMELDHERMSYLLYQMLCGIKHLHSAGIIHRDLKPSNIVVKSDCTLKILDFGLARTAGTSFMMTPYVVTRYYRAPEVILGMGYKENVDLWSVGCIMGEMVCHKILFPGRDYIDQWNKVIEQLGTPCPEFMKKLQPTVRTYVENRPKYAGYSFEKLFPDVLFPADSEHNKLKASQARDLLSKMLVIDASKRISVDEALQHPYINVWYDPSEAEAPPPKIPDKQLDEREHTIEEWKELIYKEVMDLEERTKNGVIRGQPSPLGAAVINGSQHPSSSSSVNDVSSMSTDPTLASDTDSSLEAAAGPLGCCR

[14] = target: Gamma-aminobutyric acid receptor subunit alpha-1 (Homo sapiens) (UniProt P14867); assay: GABAA1(H) Cerep selectivity data (BI); settings: filed as agonist, Compound concentration 20.0 uM
[15] = target: Mitogen-activated protein kinase kinase kinase 14 (Homo sapiens) (UniProt Q99558); assay: MAP3K14 Invitrogen selectivity data (BI); settings: Compound concentration 3.0 uM
[16] = target: Cyclin-dependent kinase 2/cyclin A (Homo sapiens) (UniProt P24941+P20248+P78396); assay: CDK2(CYCA)_CE Cerep selectivity data (BI); format: protein-complex assay; settings: Compound concentration 20.0 uM
[17] = test system: Platelet-derived growth factor receptor alpha (Homo sapiens), P16234 [D842V]; assay: PDGFRA D842V Invitrogen selectivity data (BI); settings: Compound concentration 3.0 uM
Chain of Platelet-derived growth factor receptor alpha (Homo sapiens), P16234 [D842V] (P16234 whole entry D842V): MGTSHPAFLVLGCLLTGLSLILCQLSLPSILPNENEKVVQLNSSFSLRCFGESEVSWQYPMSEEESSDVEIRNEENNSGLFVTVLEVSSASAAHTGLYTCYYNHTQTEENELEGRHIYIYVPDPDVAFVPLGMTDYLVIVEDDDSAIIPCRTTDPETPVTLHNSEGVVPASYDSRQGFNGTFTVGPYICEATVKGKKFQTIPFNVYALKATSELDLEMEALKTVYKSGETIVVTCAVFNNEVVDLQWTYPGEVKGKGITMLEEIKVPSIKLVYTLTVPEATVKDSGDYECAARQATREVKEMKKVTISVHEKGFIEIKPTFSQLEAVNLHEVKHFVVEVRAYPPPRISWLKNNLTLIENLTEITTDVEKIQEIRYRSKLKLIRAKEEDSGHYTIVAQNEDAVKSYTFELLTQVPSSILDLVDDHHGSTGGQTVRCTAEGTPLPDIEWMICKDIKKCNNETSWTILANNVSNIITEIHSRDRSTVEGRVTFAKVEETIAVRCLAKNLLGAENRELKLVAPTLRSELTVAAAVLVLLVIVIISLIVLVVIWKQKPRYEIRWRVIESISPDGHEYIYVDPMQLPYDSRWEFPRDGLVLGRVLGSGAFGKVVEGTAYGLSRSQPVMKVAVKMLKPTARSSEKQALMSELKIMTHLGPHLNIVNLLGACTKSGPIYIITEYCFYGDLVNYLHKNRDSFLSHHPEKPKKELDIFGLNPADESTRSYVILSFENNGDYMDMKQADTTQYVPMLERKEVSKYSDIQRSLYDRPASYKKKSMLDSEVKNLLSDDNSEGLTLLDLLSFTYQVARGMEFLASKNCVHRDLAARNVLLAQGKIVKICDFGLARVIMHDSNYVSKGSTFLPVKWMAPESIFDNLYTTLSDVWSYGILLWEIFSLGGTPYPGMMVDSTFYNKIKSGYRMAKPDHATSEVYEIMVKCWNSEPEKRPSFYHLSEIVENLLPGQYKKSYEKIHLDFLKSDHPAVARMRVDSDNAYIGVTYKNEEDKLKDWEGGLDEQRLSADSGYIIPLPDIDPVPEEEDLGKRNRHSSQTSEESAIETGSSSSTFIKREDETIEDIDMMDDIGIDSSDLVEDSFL

[18] = target: High affinity choline transporter 1 (Homo sapiens) (UniProt Q9GZV3); assay: CHT1/H Cerep selectivity data (BI); settings: Compound concentration 20.0 uM
Chain of High affinity choline transporter 1 (Homo sapiens) (Q9GZV3 whole entry): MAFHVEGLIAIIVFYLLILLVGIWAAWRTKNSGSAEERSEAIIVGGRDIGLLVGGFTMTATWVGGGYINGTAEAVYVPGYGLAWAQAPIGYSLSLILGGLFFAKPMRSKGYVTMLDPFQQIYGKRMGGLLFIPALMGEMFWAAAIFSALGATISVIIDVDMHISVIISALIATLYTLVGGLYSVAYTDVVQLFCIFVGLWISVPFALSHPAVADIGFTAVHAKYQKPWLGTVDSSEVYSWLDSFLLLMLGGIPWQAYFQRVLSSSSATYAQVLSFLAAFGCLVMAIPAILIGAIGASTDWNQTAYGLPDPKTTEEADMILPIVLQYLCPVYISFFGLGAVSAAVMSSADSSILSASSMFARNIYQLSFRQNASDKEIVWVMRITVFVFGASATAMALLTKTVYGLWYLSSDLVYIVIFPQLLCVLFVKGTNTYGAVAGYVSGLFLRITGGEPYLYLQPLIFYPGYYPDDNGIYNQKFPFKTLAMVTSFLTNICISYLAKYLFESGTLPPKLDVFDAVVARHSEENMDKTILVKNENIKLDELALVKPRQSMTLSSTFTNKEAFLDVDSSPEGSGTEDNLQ

[19] = target: Protein kinase C delta type (Homo sapiens) (UniProt Q05655); assay: PRKCD Invitrogen selectivity data (BI); settings: Compound concentration 3.0 uM
Chain of Protein kinase C delta type (Homo sapiens) (Q05655 whole entry, looked up): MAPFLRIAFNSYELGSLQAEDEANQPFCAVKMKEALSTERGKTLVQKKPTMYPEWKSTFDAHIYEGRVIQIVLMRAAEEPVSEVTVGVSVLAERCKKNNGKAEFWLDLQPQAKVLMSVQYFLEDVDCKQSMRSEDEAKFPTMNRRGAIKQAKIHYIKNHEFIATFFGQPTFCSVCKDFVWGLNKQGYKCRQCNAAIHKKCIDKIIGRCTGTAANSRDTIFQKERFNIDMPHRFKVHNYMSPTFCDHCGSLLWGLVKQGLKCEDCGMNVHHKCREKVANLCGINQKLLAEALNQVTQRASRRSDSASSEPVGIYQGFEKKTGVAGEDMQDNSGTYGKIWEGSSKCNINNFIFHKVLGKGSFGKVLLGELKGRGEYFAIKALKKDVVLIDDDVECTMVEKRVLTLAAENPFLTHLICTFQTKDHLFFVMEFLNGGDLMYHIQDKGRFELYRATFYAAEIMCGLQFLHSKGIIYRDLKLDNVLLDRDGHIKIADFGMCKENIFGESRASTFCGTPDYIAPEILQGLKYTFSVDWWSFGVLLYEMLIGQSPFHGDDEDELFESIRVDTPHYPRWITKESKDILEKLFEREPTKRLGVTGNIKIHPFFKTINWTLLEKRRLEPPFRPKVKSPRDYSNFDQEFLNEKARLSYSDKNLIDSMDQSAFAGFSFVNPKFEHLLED

[20] = target: Serine/threonine-protein kinase PAK 3 (Homo sapiens) (UniProt O75914); assay: PAK3 Invitrogen selectivity data (BI); settings: Compound concentration 3.0 uM

CN(C)C(=O)Cn1cc(-c2nc(C3(c4ccc(-c5cnc(N)nc5)cc4)CC3)no2)cn1 [BI 0153]
inhibition [1]: -3.57%

CN(C)C(=O)Cn1cc(-c2nc([C@@](C)(c3ccc(-c4cnc(N)nc4)cc3)C3CC3)no2)cn1 [BI 665915]
residual activity [2]: 99.5%
activity at 20 µM [3]: 90% (not active)
residual activity [4]: 81%
residual activity [5]: 118%
residual activity [6]: 96%
residual activity [7]: 88%
residual activity [8]: 102%
residual activity [9]: 87%
residual activity [10]: 96%
residual activity [11]: 100%
residual activity [12]: 99%
residual activity [13]: 93%
residual activity [14]: 105%
residual activity [15]: 98%
residual activity [16]: 118%
residual activity [17]: 95%
residual activity [18]: 101%
residual activity [19]: 103%
residual activity [20]: 94.5%
